Tests used:
[1] = target: T1, human CYP11B1 (Homo sapiens, UniProt P15538); assay: G-402 cellular enzyme assay, human CYP11B1 (cortisol release, HTRF); format: cell-based; conditions: G-402 cells expressing human CYP11B1; 1 μM Deoxycortisol
T1 construct: The expression plasmids contains the ORF for either human/cyno CYP11B1 or CYP11B2; expressed in transfected cells
T1 sequence (P15538 25-503): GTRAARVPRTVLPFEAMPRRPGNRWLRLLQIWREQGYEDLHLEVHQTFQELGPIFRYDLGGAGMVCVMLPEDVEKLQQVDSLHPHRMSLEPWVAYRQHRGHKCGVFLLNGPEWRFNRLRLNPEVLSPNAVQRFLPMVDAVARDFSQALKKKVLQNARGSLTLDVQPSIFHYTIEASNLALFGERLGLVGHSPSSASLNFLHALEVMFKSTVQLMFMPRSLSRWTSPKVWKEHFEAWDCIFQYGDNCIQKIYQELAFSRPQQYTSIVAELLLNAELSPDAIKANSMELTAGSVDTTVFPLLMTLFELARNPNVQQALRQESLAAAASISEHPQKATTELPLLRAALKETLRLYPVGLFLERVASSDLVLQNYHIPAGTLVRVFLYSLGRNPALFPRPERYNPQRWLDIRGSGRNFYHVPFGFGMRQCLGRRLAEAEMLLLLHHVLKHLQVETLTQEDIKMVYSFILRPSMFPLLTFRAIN
Text: (§1) Herein we identified the use of the G-402 cell line as a host cell to ectopically express (transiently or stably) enzymes of the CYP11 family. Specifically we developed stable G-402 cells expressing ectopically human CYP11B1, human CYP11B2, human CYP11A1, cynmolgus CYP11B1 or cynomolgus CYP11B2 enzyme activity. Importantly the identified cell line G-402 expresses co-factors (adrenodoxin and adrenodoxin reductase) important for the activity of the CYP11 family and no relevant enzyme activity of the CYP11 family (in comparison to H295R cells) was detected in these cells. Therefore the G-402 cell line is uniquely suited as a host cell for the ectopic expression of enzymes from the CYP11 family. G-402 cells can be obtained from ATCC (CRL-1440) and were originally derived from a renal leiomyoblastoma.
(§2) The expression plasmids contains the ORF for either human/cyno CYP11B1 or CYP11B2 under the control of a suitable promoter (CMV-promoter) and a suitable resistance marker (neomycin). Using standard techniques the expression plasmid is transfected into G-402 cells and these cells are then selected for expressing the given resistance markers. Individual cell-clones are then selected and assessed for displaying the desired enzymatic activity using 11-Deoxycorticosterone (Cyp11B2) or 11-Deoxycortisol (Cyp11B) as a substrate.
(§3) G-402 cells expressing CYP11 constructs were established as described above and maintained in McCoy's 5a Medium Modified, ATCC Catalog No. 30-2007 containing 10% FCS and 400 μg/ml G418 (Geneticin) at 37° C. under an atmosphere of 5% CO2/95% air. Cellular enzyme assays were performed in DMEM/F12 medium containing 2.5% charcoal treated FCS and appropriate concentration of substrate (0.3-10 uM 11-Deoxycorticosterone, 11-Deoxycortisol or Corticosterone). For assaying enzymatic activity, cells were plated onto 96 well plates and incubated for 16 h. An aliquot of the supernatant is then transferred and analyzed for the concentration of the expected product (Aldosterone for CYP11B2; Cortisol for CYP11B1). The concentrations of these steroids can be determined using HTRF assays from CisBio analyzing either Aldosterone or Cortisol.
(§4) Inhibition of the release of produced steroids can be used as a measure of the respective enzyme inhibition by test compounds added during the cellular enzyme assay. The dose dependent inhibition of enzymatic activity by a compound is calculated by means of plotting added inhibitor concentrations (x-axes) vs. measured steroid/product level (y-axes). The inhibition is then calculated by fitting the following 4-parameter sigmoidal function (Morgan-Mercer-Flodin (MMF) model) to the raw data points using the least squares method:
(§5) [formula] wherein, A is the maximum y value, B is the EC50 factor determined using XLFit, C is the minimum y value and D is the slope value.
(§6) EC50 values for compounds claimed herein were tested with the G402-based assay system described. Cyp11B2 enzyme activity was tested in presence of 1 μM Deoxycorticosterone and variable amounts of inhibitors; Cyp11B1 enzyme activity was tested in presence of 1 μM Deoxycortisol and variable amounts of inhibitors.

[2] = target: T2, human CYP11B2 (Homo sapiens, UniProt P19099); assay: G-402 cellular enzyme assay, human CYP11B2 (aldosterone release, HTRF); format: cell-based; conditions: G-402 cells expressing human CYP11B2; 1 μM Deoxycorticosterone
T2 construct: The expression plasmids contains the ORF for either human/cyno CYP11B1 or CYP11B2; expressed in transfected cells
T2 sequence (P19099 25-503): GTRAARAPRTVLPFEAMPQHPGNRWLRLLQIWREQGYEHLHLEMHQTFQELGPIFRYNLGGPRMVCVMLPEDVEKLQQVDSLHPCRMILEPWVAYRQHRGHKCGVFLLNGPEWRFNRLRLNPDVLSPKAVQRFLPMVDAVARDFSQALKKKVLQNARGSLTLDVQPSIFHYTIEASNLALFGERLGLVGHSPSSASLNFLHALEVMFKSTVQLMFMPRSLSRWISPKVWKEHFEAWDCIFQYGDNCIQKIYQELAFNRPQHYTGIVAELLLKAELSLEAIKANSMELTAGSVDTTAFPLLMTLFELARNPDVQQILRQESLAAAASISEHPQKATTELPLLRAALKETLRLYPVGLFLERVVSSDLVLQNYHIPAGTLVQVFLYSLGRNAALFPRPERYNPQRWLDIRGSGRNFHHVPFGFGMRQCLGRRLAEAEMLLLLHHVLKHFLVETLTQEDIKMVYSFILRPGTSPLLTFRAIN
Text: as §1, §2, §3, §4, §5, §6

| EC50 [1] [nM] | EC50 [2] [nM] | Structure (SMILES) |
| --- | --- | --- |
| 433 | 2 | CCS(=O)(=O)N1CCC(c2cncc(N3C(=O)c4ccc(Cl)cc4[C@H]3C)c2)CC1 (single isomer, unassigned) [Example 24, (+)-(3R or 3S)-5-chloro-2-[5-(1-ethylsulfonylpiperidin-4-yl)pyridin-3-yl]-3-methyl-3H-isoindol-1-one] |
| 107 | 2 | CCS(=O)(=O)N1CCC(c2cncc(N3C(=O)c4ccc(Cl)cc4[C@@H]3C)c2)CC1 (single isomer, unassigned) [Example 25, (−)-(3S or 3R)-5-chloro-2-[5-(1-ethylsulfonylpiperidin-4-yl)pyridin-3-yl]-3-methyl-3H-isoindol-1-one] |
| 1620 | 11 | CC(C)S(=O)(=O)N1CCC(c2cncc(N3C(=O)c4ccc(Cl)cc4[C@H]3C)c2)CC1 (single isomer, unassigned) [Example 26, (+)-(3R or 3S)-5-chloro-3-methyl-2-[5-(1-propan-2-ylsulfonylpiperidin-4-yl)pyridin-3-yl]-3H-isoindol-1-one] |
| 523 | 1 | CC(C)S(=O)(=O)N1CCC(c2cncc(N3C(=O)c4ccc(Cl)cc4[C@@H]3C)c2)CC1 (single isomer, unassigned) [Example 27, (−)-(3S or 3R)-5-chloro-3-methyl-2-[5-(1-propan-2-ylsulfonylpiperidin-4-yl)pyridin-3-yl]-3H-isoindol-1-one] |
| 167 | 4 | Cc1ccncc1C(=O)N1CCC(c2cncc(N3C(=O)c4ccc(Cl)cc4[C@H]3C)c2)CC1 (single isomer, unassigned) [Example 28, (+)-(3R or 3S)-5-chloro-3-methyl-2-[5-[1-(4-methylpyridine-3-carbonyl)piperidin-4-yl]pyridin-3-yl]-3H-isoindol-1-one] |
| 117 | 9 | Cc1ccncc1C(=O)N1CCC(c2cncc(N3C(=O)c4ccc(Cl)cc4[C@@H]3C)c2)CC1 (single isomer, unassigned) [Example 29, (−)-(3S or 3R)-5-chloro-3-methyl-2-[5-[1-(4-methylpyridine-3-carbonyl)piperidin-4-yl]pyridin-3-yl]-3H-isoindol-1-one] |
| 213 | 5 | CC1(C)c2cc(Cl)ccc2C(=O)N1c1cncc(C2CCCN(S(C)(=O)=O)C2)c1 (single isomer, unassigned; (+)) [Example 5, (+)-5-chloro-3,3-dimethyl-2-[5-[(3R or 3S)-1-methylsulfonylpiperidin-3-yl]pyridin-3-yl]isoindol-1-one] |
| 109 | 4 | CCCS(=O)(=O)N1CCC(c2cncc(N3C(=O)c4ccc(Cl)cc4C3(C)C)c2)C1 (single isomer, unassigned; (+)) [Example 8, (+)-5-chloro-3,3-dimethyl-2-[5-[(3R or 3S)-1-propylsulfonylpyrrolidin-3-yl]pyridin-3-yl]isoindol-1-one] |
| 93 | 2 | CC(C)S(=O)(=O)N1CCC(c2cncc(N3C(=O)c4ccc(Cl)cc4C3(C)C)c2)C1 (single isomer, unassigned; (+)) [Example 10, (+)-5-chloro-3,3-dimethyl-2-[5-[(3R or 3S)-1-propan-2-ylsulfonylpyrrolidin-3-yl]pyridin-3-yl]isoindol-1-one] |
| 75 | 2 | CC1(C)c2cc(Cl)ccc2C(=O)N1c1cncc(C2CCN(S(=O)(=O)C3CC3)C2)c1 (single isomer, unassigned; (+)) [Example 12, (+)-5-chloro-2-[5-[(3R or 3S)-1-cyclopropylsulfonylpyrrolidin-3-yl]pyridin-3-yl]-3,3-dimethylisoindol-1-one] |
| 332 | 15 | CC1(C)c2cc(Cl)ccc2C(=O)N1c1cncc(C2CCCN(S(C)(=O)=O)C2)c1 (single isomer, unassigned; (-)) [Example 6, (−)-5-chloro-3,3-dimethyl-2-[5-[(3S or 3R)-1-methylsulfonylpiperidin-3-yl]pyridin-3-yl]isoindol-1-one] |
| 800 | 14 | CCCS(=O)(=O)N1CCC(c2cncc(N3C(=O)c4ccc(Cl)cc4C3(C)C)c2)C1 (single isomer, unassigned; (-)) [Example 9, (−)-5-chloro-3,3-dimethyl-2-[5-[(3S or 3R)-1-propylsulfonylpyrrolidin-3-yl]pyridin-3-yl]isoindol-1-one] |
| 601 | 7 | CC(C)S(=O)(=O)N1CCC(c2cncc(N3C(=O)c4ccc(Cl)cc4C3(C)C)c2)C1 (single isomer, unassigned; (-)) [Example 11, (−)-5-chloro-3,3-dimethyl-2-[5-[(3S or 3R)-1-propan-2-ylsulfonylpyrrolidin-3-yl]pyridin-3-yl]isoindol-1-one] |
| 957 | 19 | CC1(C)c2cc(Cl)ccc2C(=O)N1c1cncc(C2CCN(S(=O)(=O)C3CC3)C2)c1 (single isomer, unassigned; (-)) [Example 13, (−)-5-chloro-2-[5-[(3S or 3R)-1-cyclopropylsulfonylpyrrolidin-3-yl]pyridin-3-yl]-3,3-dimethylisoindol-1-one] |
| 238 | 5 | CCC(=O)N1CCC(c2cncc(N3C(=O)c4ccc(Cl)cc4C3(C)C)c2)CC1 [Example 1, 5-Chloro-3,3-dimethyl-2-[5-(1-propanoylpiperidin-4-yl)pyridin-3-yl]isoindol-1-one] |
| 290 | 2 | CCS(=O)(=O)N1CCC(c2cncc(N3C(=O)c4ccc(Cl)cc4C3(C)C)c2)CC1 [Example 2, 5-Chloro-2-[5-(1-ethylsulfonylpiperidin-4-yl)pyridin-3-yl]-3,3-dimethylisoindol-1-one] |
| 53 | 2 | CC1(C)c2cc(Cl)ccc2C(=O)N1c1cncc(C2CCN(S(C)(=O)=O)CC2)c1 [Example 3, 5-Chloro-3,3-dimethyl-2-[5-(1-methylsulfonylpiperidin-4-yl)pyridin-3-yl]isoindol-1-one] |
| 605 | 6 | CCS(=O)(=O)N1CCCC(c2cncc(N3C(=O)c4ccc(Cl)cc4C3(C)C)c2)C1 (centres unmarked) [Example 4, 5-Chloro-2-[5-(1-ethylsulfonylpiperidin-3-yl)pyridin-3-yl]-3,3-dimethylisoindol-1-one] |
| 149 | 2 | CCS(=O)(=O)N1CCC(c2cncc(N3C(=O)c4ccc(Cl)cc4C3(C)C)c2)C1 (centres unmarked) [Example 7, 5-Chloro-2-[5-(1-ethylsulfonylpyrrolidin-3-yl)pyridin-3-yl]-3,3-dimethylisoindol-1-one] |
